# Assay results reported in ChEMBL document CHEMBL1135365, “Mixed lineage kinase activity of indolocarbazole analogues” (Bioorg Med Chem Lett, 2002).
# How the values were obtained:
# [1] = target: Mitogen-activated protein kinase kinase kinase 11 (Homo sapiens, UniProt Q16584); assay: Inhibition of Mixed lineage kinase 3 (MLK3)
# Protein kinase C (PKC) = assay: Inhibition of protein kinase C (PKC) from rat brain homogenate
# [2] = target: High affinity nerve growth factor receptor (Homo sapiens, UniProt P04629); assay: Inhibition of NGF high affinity receptor tyrosine kinase TrkA
# Chain of High affinity nerve growth factor receptor (P04629 whole entry): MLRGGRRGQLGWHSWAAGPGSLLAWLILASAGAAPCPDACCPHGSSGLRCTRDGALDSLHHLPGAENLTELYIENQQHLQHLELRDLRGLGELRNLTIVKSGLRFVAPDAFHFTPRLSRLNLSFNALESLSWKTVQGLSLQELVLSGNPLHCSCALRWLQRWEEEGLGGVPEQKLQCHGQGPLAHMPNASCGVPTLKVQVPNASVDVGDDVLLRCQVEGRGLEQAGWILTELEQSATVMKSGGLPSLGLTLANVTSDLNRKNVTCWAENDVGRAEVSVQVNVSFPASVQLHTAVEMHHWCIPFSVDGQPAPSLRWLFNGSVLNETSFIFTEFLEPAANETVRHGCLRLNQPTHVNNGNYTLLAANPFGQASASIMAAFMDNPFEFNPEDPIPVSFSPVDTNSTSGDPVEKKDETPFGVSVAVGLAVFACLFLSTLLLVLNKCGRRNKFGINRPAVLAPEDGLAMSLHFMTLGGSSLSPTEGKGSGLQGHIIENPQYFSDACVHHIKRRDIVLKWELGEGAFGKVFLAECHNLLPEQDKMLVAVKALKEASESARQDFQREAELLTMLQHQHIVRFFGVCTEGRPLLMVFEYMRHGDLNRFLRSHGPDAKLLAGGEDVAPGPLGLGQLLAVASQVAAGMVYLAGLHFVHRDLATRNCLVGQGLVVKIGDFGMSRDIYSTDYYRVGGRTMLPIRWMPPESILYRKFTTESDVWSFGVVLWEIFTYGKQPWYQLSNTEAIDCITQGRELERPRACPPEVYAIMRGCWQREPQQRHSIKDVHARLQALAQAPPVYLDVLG
# [3] = target: Mitogen-activated protein kinase kinase kinase 9 (Homo sapiens, UniProt P80192); assay: Inhibition of Mixed lineage kinase 1 (MLK1)
# Chain of Mitogen-activated protein kinase kinase kinase 9 (P80192 whole entry): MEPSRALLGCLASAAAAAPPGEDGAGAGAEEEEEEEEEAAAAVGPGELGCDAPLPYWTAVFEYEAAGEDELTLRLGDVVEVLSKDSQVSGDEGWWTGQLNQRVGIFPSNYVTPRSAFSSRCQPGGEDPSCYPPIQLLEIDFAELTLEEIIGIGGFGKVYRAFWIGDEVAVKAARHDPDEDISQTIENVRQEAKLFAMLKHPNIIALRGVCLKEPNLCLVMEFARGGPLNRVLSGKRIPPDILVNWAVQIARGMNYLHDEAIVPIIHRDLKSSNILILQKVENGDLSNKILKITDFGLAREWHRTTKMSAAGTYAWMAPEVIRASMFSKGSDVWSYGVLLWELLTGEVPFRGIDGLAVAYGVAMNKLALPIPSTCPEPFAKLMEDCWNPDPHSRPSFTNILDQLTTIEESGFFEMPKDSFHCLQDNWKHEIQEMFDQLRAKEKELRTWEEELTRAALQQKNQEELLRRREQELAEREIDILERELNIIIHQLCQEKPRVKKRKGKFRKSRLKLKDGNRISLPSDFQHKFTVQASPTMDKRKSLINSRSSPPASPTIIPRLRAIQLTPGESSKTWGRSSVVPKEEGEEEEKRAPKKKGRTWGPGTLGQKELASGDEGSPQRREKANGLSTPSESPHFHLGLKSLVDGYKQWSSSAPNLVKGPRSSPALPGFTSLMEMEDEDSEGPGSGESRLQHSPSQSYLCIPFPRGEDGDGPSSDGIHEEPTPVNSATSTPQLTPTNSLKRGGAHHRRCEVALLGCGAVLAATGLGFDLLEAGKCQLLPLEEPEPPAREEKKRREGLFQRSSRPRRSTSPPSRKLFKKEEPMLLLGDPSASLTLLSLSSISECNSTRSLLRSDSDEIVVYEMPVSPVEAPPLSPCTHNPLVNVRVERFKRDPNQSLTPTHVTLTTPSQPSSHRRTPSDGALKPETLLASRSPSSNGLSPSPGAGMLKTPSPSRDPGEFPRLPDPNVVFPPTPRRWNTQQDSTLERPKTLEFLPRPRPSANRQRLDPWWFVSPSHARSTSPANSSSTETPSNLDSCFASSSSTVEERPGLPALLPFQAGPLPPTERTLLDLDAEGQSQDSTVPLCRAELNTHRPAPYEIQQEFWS
# [4] = target: Mitogen-activated protein kinase kinase kinase 10 (Homo sapiens, UniProt Q02779); assay: Inhibition of Mixed lineage kinase 2(MLK2)
# Chain of Mitogen-activated protein kinase kinase kinase 10 (Q02779 whole entry): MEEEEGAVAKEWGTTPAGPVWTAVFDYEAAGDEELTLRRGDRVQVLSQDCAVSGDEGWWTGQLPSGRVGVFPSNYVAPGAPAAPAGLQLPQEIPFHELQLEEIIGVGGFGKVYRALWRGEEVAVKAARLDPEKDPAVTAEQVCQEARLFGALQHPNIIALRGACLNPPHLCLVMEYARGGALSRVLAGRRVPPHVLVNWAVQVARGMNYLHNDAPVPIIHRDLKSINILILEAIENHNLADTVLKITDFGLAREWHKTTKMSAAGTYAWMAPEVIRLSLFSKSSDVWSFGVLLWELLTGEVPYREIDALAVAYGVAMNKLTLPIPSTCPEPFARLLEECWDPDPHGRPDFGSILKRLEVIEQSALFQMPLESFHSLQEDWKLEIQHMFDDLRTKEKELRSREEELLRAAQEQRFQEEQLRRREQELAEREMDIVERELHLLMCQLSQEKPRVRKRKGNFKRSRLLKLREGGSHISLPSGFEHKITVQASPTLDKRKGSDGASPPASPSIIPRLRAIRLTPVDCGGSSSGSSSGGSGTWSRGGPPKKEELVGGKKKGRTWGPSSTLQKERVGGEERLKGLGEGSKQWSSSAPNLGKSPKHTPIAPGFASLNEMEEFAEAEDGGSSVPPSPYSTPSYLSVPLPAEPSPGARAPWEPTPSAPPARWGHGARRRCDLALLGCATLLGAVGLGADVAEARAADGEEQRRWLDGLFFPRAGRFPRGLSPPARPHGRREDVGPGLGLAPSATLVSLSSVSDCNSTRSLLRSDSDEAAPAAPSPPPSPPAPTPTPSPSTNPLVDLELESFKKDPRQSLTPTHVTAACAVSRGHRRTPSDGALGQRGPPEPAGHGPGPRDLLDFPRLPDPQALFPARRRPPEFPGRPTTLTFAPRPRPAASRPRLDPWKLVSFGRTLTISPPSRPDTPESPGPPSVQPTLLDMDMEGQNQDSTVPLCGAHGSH
# Chain of Mitogen-activated protein kinase kinase kinase 11 (Q16584 whole entry): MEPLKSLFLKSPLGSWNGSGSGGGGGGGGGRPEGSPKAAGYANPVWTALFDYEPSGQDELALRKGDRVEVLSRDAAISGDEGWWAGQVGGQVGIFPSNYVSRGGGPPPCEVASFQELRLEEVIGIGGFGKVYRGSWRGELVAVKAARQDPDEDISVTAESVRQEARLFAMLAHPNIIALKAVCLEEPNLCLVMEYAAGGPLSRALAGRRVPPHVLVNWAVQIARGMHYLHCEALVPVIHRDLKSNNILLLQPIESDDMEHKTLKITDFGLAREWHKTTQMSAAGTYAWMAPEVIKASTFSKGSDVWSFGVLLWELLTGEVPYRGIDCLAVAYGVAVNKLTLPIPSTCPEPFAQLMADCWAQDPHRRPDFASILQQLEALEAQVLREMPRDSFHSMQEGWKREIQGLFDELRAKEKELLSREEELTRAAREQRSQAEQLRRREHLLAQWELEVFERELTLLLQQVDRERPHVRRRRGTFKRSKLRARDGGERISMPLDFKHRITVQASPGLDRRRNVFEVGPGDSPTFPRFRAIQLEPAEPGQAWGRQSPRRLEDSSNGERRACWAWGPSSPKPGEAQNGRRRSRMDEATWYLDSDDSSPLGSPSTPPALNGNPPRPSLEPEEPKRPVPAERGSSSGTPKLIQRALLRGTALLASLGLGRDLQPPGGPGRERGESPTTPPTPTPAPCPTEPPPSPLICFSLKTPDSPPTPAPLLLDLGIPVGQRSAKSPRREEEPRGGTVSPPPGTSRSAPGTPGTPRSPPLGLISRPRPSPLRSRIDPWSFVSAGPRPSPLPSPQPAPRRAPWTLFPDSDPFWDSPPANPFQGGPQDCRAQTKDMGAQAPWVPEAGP
IC50 [1] [µM],IC50 (Protein kinase C (PKC)) [µM],IC50 [2] [µM],IC50 [3] [µM],IC50 [4] [µM],Structure (SMILES)
0.056,> 10,> 10,0.09,–,CCCSCc1ccc2c(c1)c1c3c(c4c5cc(CSCCC)ccc5n5c4c1n2[C@H]1C[C@](O)(C(=O)OC)[C@]5(C)O1)CNC3=O
0.044,0.222,> 1,0.043,0.14,CCSCc1ccc2c(c1)c1c3c(c4c5ccccc5n5c4c1n2[C@H]1C[C@](O)(C(=O)OC)[C@]5(C)O1)CNC3=O
0.0231,> 10,> 10,0.038,0.051,CCSCc1ccc2c(c1)c1c3c(c4c5cc(CSCC)ccc5n5c4c1n2[C@H]1C[C@](O)(C(=O)OC)[C@]5(C)O1)CNC3=O [CEP-1347]
0.021,0.4,0.061,0.028,0.028,CCSCc1ccc2c(c1)c1c3c(c4c5ccccc5n5c4c1n2[C@@]1(C)O[C@@H]5C[C@]1(O)C(=O)OC)C(=O)NC3
0.094,> 10,> 1,0.162,–,C=CCSCc1ccc2c(c1)c1c3c(c4c5cc(CSCC=C)ccc5n5c4c1n2[C@H]1C[C@](O)(C(=O)OC)[C@]5(C)O1)CNC3=O
0.123,1.6,> 1,0.36,–,COC(=O)[C@@]1(O)C[C@H]2O[C@]1(C)n1c3ccc(CSCCN(C)C)cc3c3c4c(c5c6cc(CSCCN(C)C)ccc6n2c5c31)C(=O)NC4
0.031,0.98,> 10,0.045,0.089,COC(=O)[C@@]1(O)C[C@H]2O[C@]1(C)n1c3ccc(CSC(C)C)cc3c3c4c(c5c6cc(CSC(C)C)ccc6n2c5c31)C(=O)NC4
0.143,> 7.6,> 1,0.303,0.627,CCCCSCc1ccc2c(c1)c1c3c(c4c5cc(CSCCCC)ccc5n5c4c1n2[C@H]1C[C@](O)(C(=O)OC)[C@]5(C)O1)CNC3=O
0.011,0.003,–,0.015,–,COC(=O)[C@@]1(O)C[C@H]2O[C@]1(C)n1c3ccc(CO)cc3c3c4c(c5c6cc(CO)ccc6n2c5c31)C(=O)NC4

Structure (SMILES),IC50 [1] [µM],IC50 (Protein kinase C (PKC)) [µM],IC50 [2] [µM],IC50 [3] [µM],IC50 [4] [µM]
CCOCc1ccc2c(c1)c1c3c(c4c5cc(COCC)ccc5n5c4c1n2[C@H]1C[C@](O)(C(=O)OC)[C@]5(C)O1)CNC3=O,0.011,2.6,0.21,0.019,0.02
COCc1ccc2c(c1)c1c3c(c4c5cc(COC)ccc5n5c4c1n2[C@H]1C[C@](O)(C(=O)OC)[C@]5(C)O1)CNC3=O,0.011,0.45,0.27,0.016,0.016
